From ChEMBL document CHEMBL3232922, “Discovery and SAR of 6-alkyl-2,4-diaminopyrimidines as histamine H₄ receptor antagonists” (J Med Chem, 2014)

Key:
Histamine H4 receptor [1] = biological target: T1, Histamine H4 receptor (Homo sapiens, UniProt Q9H3N8); test: Antagonist activity at human histamine H4 receptor expressed in SK-N-MC cells assessed as reduction of histamine-induced inhibition of cAMP-mediated beta-galactosidase reporter gene activity treated 10 mins prior to histamine challenge by microplate reader analysis; format: functional, cell-based; conditions: read-out: pA2 (converted)
Histamine H4 receptor [2] = biological target: T1, Histamine H4 receptor; test: Displacement of [3H]histamine from human recombinant histamine H4 receptor expressed in SK-N-MC cells after 45 mins by competition binding analysis; format: cell-based
Histamine H4 receptor [3] = biological target: T1, Histamine H4 receptor; test: Agonist activity at human H4 receptor; conditions: read-out: EC50

T1 sequence (Q9H3N8 whole entry): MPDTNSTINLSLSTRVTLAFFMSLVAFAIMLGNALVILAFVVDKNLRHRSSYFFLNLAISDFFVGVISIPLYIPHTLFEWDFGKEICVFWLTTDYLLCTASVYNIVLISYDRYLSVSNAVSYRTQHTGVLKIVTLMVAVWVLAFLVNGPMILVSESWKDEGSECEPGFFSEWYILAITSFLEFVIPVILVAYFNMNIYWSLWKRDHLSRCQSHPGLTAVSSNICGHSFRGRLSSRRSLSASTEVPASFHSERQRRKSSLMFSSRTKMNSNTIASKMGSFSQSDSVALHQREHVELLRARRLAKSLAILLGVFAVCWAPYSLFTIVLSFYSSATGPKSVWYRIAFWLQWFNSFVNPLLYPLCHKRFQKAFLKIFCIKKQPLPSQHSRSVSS

CCCCc1cc(N2CC[C@@H](NC)C2)nc(N)n1
Kb (Histamine H4 receptor [1]): 3.98 nM | Ki (Histamine H4 receptor [2]): 1.5 nM | EC50 (Histamine H4 receptor [3]): > 10 µM

Nc1nc(C2CCCC2)cc(N2C[C@H]3CCCN[C@H]3C2)n1
Kb (Histamine H4 receptor [1]): < 0.1 nM | Ki (Histamine H4 receptor [2]): 1.8 nM | EC50 (Histamine H4 receptor [3]): > 10 µM

Nc1nc(Cc2ccccc2)cc(N2CC[C@@H](N)C2)n1
Ki (Histamine H4 receptor [2]): 100 nM

CN1C[C@@H]2CN(c3cc(C4CCCC4)nc(N)n3)C[C@@H]2C1
Kb (Histamine H4 receptor [1]): 20 nM | EC50 (Histamine H4 receptor [3]): > 10 µM

CN1CCN(c2cc(C3CCCC3)nc(N)n2)CC1
Kb (Histamine H4 receptor [1]): 0.126 nM | Ki (Histamine H4 receptor [2]): 1.4 nM | EC50 (Histamine H4 receptor [3]): > 10 µM

CN1CCN(c2ncnc3c2oc2ccc(Cl)cc23)CC1
Ki (Histamine H4 receptor [2]): 5 nM

CN[C@H]1CCN(c2cc(C3CCCC3)nc(N)n2)C1
Ki (Histamine H4 receptor [2]): 25 nM | EC50 (Histamine H4 receptor [3]): > 10 µM

CN[C@@H]1CCN(c2cc(C3CCCCC3)nc(N)n2)C1
Kb (Histamine H4 receptor [1]): < 0.1 nM | Ki (Histamine H4 receptor [2]): 2.3 nM | EC50 (Histamine H4 receptor [3]): > 10 µM

CN[C@@H]1CCN(c2cc(Cl)nc(N)n2)C1
Ki (Histamine H4 receptor [2]): > 10000 nM

CN[C@@H]1CCN(c2cc(C(C)C)nc(N)n2)C1
Kb (Histamine H4 receptor [1]): 12.6 nM | EC50 (Histamine H4 receptor [3]): > 10 µM

CN[C@@H]1CCN(c2cc(C3CC3)nc(N)n2)C1
Kb (Histamine H4 receptor [1]): 7.94 nM | EC50 (Histamine H4 receptor [3]): > 10 µM

CN[C@H]1CN(c2cc(C3CCCC3)nc(N)n2)C[C@@H]1O (relative stereo)
Kb (Histamine H4 receptor [1]): 10 nM | Ki (Histamine H4 receptor [2]): 30 nM | EC50 (Histamine H4 receptor [3]): > 10 µM

CN[C@@H]1CCN(c2cc(C(F)(F)F)nc(N)n2)C1
Ki (Histamine H4 receptor [2]): > 10000 nM

CN[C@@H]1CCN(c2nc(N)nc3c2oc2ncc(Cl)cc23)C1
Ki (Histamine H4 receptor [2]): 9 nM

CN1CCN(C(=O)c2nc3c([nH]2)CCCC3)CC1
Ki (Histamine H4 receptor [2]): 39 nM

Nc1nc(C2CCCC2)cc(N2C[C@H]3CNC[C@H]3C2)n1
Ki (Histamine H4 receptor [2]): 328 nM
